Here are results for 25 compounds from patent US9464064B2, “HCV helicase inhibitors and methods of use thereof” (University of Kansas, priority 2011, dated 2016).

Structures are written as SMILES.

In the first assay the target is T1, HCV NS3 helicase NS3h_1b(con1) (Hepatitis C virus genotype 1b, UniProt Q9WMX2).
T1 construct: truncated C-terminally His-tagged NS3 proteins lacking the N-terminal protease, called NS3h; His-tag (C); made in house
T1 sequence (Q9WMX2 1192-1657): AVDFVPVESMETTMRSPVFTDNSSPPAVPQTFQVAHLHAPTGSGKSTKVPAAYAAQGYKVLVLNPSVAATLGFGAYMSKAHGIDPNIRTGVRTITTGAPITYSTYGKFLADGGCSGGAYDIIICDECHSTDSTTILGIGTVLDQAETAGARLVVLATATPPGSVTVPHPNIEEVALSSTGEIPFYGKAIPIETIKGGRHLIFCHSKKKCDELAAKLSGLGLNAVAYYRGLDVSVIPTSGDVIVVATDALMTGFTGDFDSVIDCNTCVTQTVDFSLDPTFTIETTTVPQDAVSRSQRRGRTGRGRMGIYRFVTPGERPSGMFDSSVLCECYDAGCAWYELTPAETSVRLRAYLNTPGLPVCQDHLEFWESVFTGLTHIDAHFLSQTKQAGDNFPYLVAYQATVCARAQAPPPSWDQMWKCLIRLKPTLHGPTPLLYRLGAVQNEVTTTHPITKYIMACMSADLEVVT
In words: MBHA screen of NCI mechanistic set library at 20 μM (percent inhibition, compound interference). Format: biochemical. The following applies: compounds at 20 μM, MBHA with DNA substrate; assay interference calculated with Equation 2. The essentials:
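Molecular beacon-based DNA unwinding assay; compounds screened at 20 μM in triplicate, with DMSO-only negative and 500 nM dT20 positive controls. Fluorescence (ex 643/em 670 nm) was read before and 30 min after adding ATP to 1 mM. Percent inhibition came from the change relative to DMSO controls; interference from pre-ATP fluorescence versus DMSO controls.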
As to `C/C(NNC(=O)c1ccccc1O)=C1\C=Nc2ccccc2S1` [Compound 635121], the “Int.* (Ratio) (Interference)” value is recorded as 0.92 Ratio.
With `COC(=O)c1[nH]c(=S)[nH]c(=O)c1-c1ccc(Cl)cc1` [Compound 635140], the “Int.* (Ratio) (Interference)” value was 1.04 Ratio.
For `O=C(c1ccccc1)C(c1ccccc1)C1(O)C(=O)Nc2c(Cl)cc(Cl)cc21` (centres unmarked) [Compound 635312], the “Int.* (Ratio) (Interference)” value is recorded as 0.93 Ratio.
`Cc1c(Cl)ccc2c1NC(=O)C2(O)C(C(=O)c1ccccc1)c1ccccc1` (centres unmarked) [Compound 635321]: the “Int.* (Ratio) (Interference)” value is recorded as 1.01 Ratio.
Regarding `O=C(CC1(O)C(=O)Nc2c(Cl)cc(Cl)cc21)c1ccc([N+](=O)[O-])cc1` (centres unmarked) [Compound 635326], the “Int.* (Ratio) (Interference)” value is given as 1.11 Ratio.
As to `O=C(CC1(O)C(=O)Nc2c(Cl)cc(Cl)cc21)c1cccc2ccccc12` (centres unmarked) [Compound 635328], the “Int.* (Ratio) (Interference)” value is listed as 0.99 Ratio.
Take `CN1CCN(CCSC2Cc3cc(Cl)ccc3Sc3ccccc32)CC1` (centres unmarked) [Compound 635366]: the “Int.* (Ratio) (Interference)” value is reported as 1.05 Ratio.
With `O=C(CC1(O)C(=O)Nc2c(Cl)ccc(Cl)c21)c1ccc(Cl)cc1Cl` (centres unmarked) [Compound 635436], the “Int.* (Ratio) (Interference)” value was 0.89 Ratio.
Take `O=C(CC1(O)C(=O)Nc2c(Cl)ccc(Cl)c21)c1ccc(Cl)cc1` (centres unmarked) [Compound 635437]: the “Int.* (Ratio) (Interference)” value was 0.92 Ratio.
As for `CC(=O)/C(C)=N/NC(=O)c1ccccc1O` [Compound 635441], the “Int.* (Ratio) (Interference)” value is listed as 0.92 Ratio.
With `C/C(=N\NC(=S)N(C)C)c1ccccn1.[Cu][Br]` [Compound 635448], the “Int.* (Ratio) (Interference)” value is 0.93 Ratio.

The assay is the same for the next values; noted with them: compounds at 20 μM, MBHA with DNA substrate; calculated from Equation 1.
For `C/C(NNC(=O)c1ccccc1O)=C1\C=Nc2ccccc2S1` [Compound 635121], the “Inh. (%) (Inhibition)” value is listed as 14.5%.
In the case of `COC(=O)c1[nH]c(=S)[nH]c(=O)c1-c1ccc(Cl)cc1` [Compound 635140], the “Inh. (%) (Inhibition)” value is 4.6%.
Regarding `O=C(c1ccccc1)C(c1ccccc1)C1(O)C(=O)Nc2c(Cl)cc(Cl)cc21` (centres unmarked) [Compound 635312], the “Inh. (%) (Inhibition)” value was −18.1%.
On to `Cc1c(Cl)ccc2c1NC(=O)C2(O)C(C(=O)c1ccccc1)c1ccccc1` (centres unmarked) [Compound 635321], for which the “Inh. (%) (Inhibition)” value is recorded as 5.1%.
On the same count and under the same terms, then `O=C(CC1(O)C(=O)Nc2c(Cl)cc(Cl)cc21)c1ccc([N+](=O)[O-])cc1` (centres unmarked) [Compound 635326], with 5.9%.
For `O=C(CC1(O)C(=O)Nc2c(Cl)cc(Cl)cc21)c1cccc2ccccc12` (centres unmarked) [Compound 635328], the “Inh. (%) (Inhibition)” value was 2.5%.
On the same count and under the same terms, then `CN1CCN(CCSC2Cc3cc(Cl)ccc3Sc3ccccc32)CC1` (centres unmarked) [Compound 635366], with 25.5%; and `O=C(CC1(O)C(=O)Nc2c(Cl)ccc(Cl)c21)c1ccc(Cl)cc1Cl` (centres unmarked) [Compound 635436], with 15.6%; and `O=C(CC1(O)C(=O)Nc2c(Cl)ccc(Cl)c21)c1ccc(Cl)cc1` (centres unmarked) [Compound 635437], with 0.1%.
For the compound `CC(=O)/C(C)=N/NC(=O)c1ccccc1O` [Compound 635441], the “Inh. (%) (Inhibition)” value was 16.7%.
Still for that read-out and setting: the figure for `C/C(=N\NC(=S)N(C)C)c1ccccn1.[Cu][Br]` [Compound 635448] is 0.8%.

Staying with this assay, now noted: compounds at 20 μM, MBHA with a DNA substrate; calculated from Equation 1.
Regarding `CC(C)C(=O)OCN(C)c1nc(N(C)COC(=O)C(C)C)nc(N(C)COC(=O)C(C)C)n1` [Compound 626551], the “Inh. (%) (Inhibition)” value was −24.9%.
As for `COc1cc2c3c(c1OC)-c1cc4c(cc1CC3(C#N)N(C(=O)c1ccccc1)CC2)OCO4` (centres unmarked) [Compound 627666], the “Inh. (%) (Inhibition)” value is listed as −3.6%.
`O=C1c2ccccc2C(=O)c2nc(-c3ccccc3)c(-c3ccccc3)nc21` [Compound 629713]: the “Inh. (%) (Inhibition)” value was −20.3%.
On the same count and under the same terms, the figure for `CC[C@@]1(O)C(=O)OCc2c1cc1n(c2=O)Cc2cc3c(N)cccc3nc2-1` [Compound 629971] is −20.4%.
On the same count and under the same terms, the figure for `Cn1cnc([N+](=O)[O-])c1Sc1nnc(-c2cccnc2)n1C` [Compound 631160] is 9.9%; for `O=C1c2ccccc2C(=O)c2sc(Nc3ccc(Cl)c(Cl)c3)nc21` [Compound 631521] it is −22.6%.
Consider `O=C1c2ccccc2C(=O)c2sc(Nc3ccc(Cl)cc3)nc21` [Compound 631529], for which the “Inh. (%) (Inhibition)” value is given as −28.9%.
In the case of `O=C(NC(=O)c1c(Cl)nc2sccn12)Nc1ccc(Cl)cc1` [Compound 633209], the “Inh. (%) (Inhibition)” value is reported as 9.9%.
With `CCc1cccc(CC)c1NC(=O)C(C#N)C1=C(Cl)C(=O)c2ccccc2C1=O` (centres unmarked) [Compound 634503], the “Inh. (%) (Inhibition)” value is reported as −31.9%.
For `O=C1C=CC(CC(=O)c2ccc3ccccc3c2)O1` (centres unmarked) [Compound 634650], the “Inh. (%) (Inhibition)” value was −4.4%.
For the compound `CC1=C(C(=O)NCc2ccccc2)C(c2ccccc2O)C(C(=O)NCc2ccccc2)=C(C)N1` [Compound 634928], the “Inh. (%) (Inhibition)” value is 6.8%.
Still for that read-out and setting: then `O=C(c1ccccc1)C1OC12C(=O)Nc1c(Cl)cc(Cl)cc12` (centres unmarked) [Compound 635306], with −6.8%; and `Cc1cc(Cl)cc2c1NC(=O)C2(O)C(C(=O)c1ccccc1)c1ccccc1` (centres unmarked) [Compound 635435], with 6.9%.
As to `O=C(CC1(O)C(=O)Nc2c(Cl)cc(Cl)cc21)c1cccc([N+](=O)[O-])c1` (centres unmarked) [Compound 635438], the “Inh. (%) (Inhibition)” value was −23.8%.

Still in this assay, the particulars now being: compounds at 20 μM; assay interference calculated with Equation 2 (fluorescence vs DMSO-only controls before ATP).
In the case of `CC(C)C(=O)OCN(C)c1nc(N(C)COC(=O)C(C)C)nc(N(C)COC(=O)C(C)C)n1` [Compound 626551], the “Int.* (Ratio) (Interference)” value was 0.90 Ratio.
As for `COc1cc2c3c(c1OC)-c1cc4c(cc1CC3(C#N)N(C(=O)c1ccccc1)CC2)OCO4` (centres unmarked) [Compound 627666], the “Int.* (Ratio) (Interference)” value is reported as 0.87 Ratio.
Regarding `O=C1c2ccccc2C(=O)c2nc(-c3ccccc3)c(-c3ccccc3)nc21` [Compound 629713], the “Int.* (Ratio) (Interference)” value is recorded as 0.90 Ratio.
The same measure, in the same setting: then `CC[C@@]1(O)C(=O)OCc2c1cc1n(c2=O)Cc2cc3c(N)cccc3nc2-1` [Compound 629971], with 0.96 Ratio; and `Cn1cnc([N+](=O)[O-])c1Sc1nnc(-c2cccnc2)n1C` [Compound 631160], with 0.91 Ratio.
With `O=C1c2ccccc2C(=O)c2sc(Nc3ccc(Cl)c(Cl)c3)nc21` [Compound 631521], the “Int.* (Ratio) (Interference)” value is 0.93 Ratio.
On to `O=C1c2ccccc2C(=O)c2sc(Nc3ccc(Cl)cc3)nc21` [Compound 631529], for which the “Int.* (Ratio) (Interference)” value is listed as 1.06 Ratio.
Take `O=C(NC(=O)c1c(Cl)nc2sccn12)Nc1ccc(Cl)cc1` [Compound 633209]: the “Int.* (Ratio) (Interference)” value is recorded as 0.87 Ratio.
The same measure, in the same setting: the figure for `CCc1cccc(CC)c1NC(=O)C(C#N)C1=C(Cl)C(=O)c2ccccc2C1=O` (centres unmarked) [Compound 634503] is 0.93 Ratio.
As for `O=C1C=CC(CC(=O)c2ccc3ccccc3c2)O1` (centres unmarked) [Compound 634650], the “Int.* (Ratio) (Interference)” value is 1.12 Ratio.
`CC1=C(C(=O)NCc2ccccc2)C(c2ccccc2O)C(C(=O)NCc2ccccc2)=C(C)N1` [Compound 634928]: the “Int.* (Ratio) (Interference)” value is reported as 0.97 Ratio.
Consider `O=C(c1ccccc1)C1OC12C(=O)Nc1c(Cl)cc(Cl)cc12` (centres unmarked) [Compound 635306], for which the “Int.* (Ratio) (Interference)” value is given as 0.96 Ratio.
Turning to `Cc1cc(Cl)cc2c1NC(=O)C2(O)C(C(=O)c1ccccc1)c1ccccc1` (centres unmarked) [Compound 635435], the “Int.* (Ratio) (Interference)” value is reported as 0.96 Ratio.
Turning to `O=C(CC1(O)C(=O)Nc2c(Cl)cc(Cl)cc21)c1cccc([N+](=O)[O-])c1` (centres unmarked) [Compound 635438], the “Int.* (Ratio) (Interference)” value is listed as 1.02 Ratio.
